SMILES strings stand for the structures. pEC50: −log10 of the molar value.

One experiment addresses T1, human PPARdelta (Homo sapiens, UniProt Q03181).
T1 construct: amino acids S139-Y441; expressed in transfected cells; plasmid pcDNA3
T1 sequence (Q03181 139-441): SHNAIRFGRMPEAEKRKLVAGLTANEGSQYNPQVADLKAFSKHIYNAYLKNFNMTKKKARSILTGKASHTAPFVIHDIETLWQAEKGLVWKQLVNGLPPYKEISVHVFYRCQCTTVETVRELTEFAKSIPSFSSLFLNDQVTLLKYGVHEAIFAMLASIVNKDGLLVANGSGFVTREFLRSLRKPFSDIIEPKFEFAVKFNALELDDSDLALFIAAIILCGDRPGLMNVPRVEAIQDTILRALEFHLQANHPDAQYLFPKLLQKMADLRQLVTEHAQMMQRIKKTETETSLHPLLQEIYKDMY
Put plainly: Cellular PPARdelta assay (human GAL4 luciferase reporter, stably transfected HEK cell line). Format: cell-based. As for the experimental part:
Determination of EC50 Values of PPAR Agonists in the Cellular PPARdelta Assay
(§1) The potency of substances which bind to human PPARdelta and activate it in an agonistic manner is analyzed using a stably transfected HEK cell line (HEK=human embryo kidney) which is referred to here as PPARdelta reporter cell line. In analogy to the assay described for PPARalpha, the PPARdelta reporter cell line also contains two genetic elements, a luciferase reporter element (pdeltaM-GAL4-Luc-Zeo) and a PPARdelta fusion protein (GR-GAL4-humanPPARdelta-LBD) which mediates expression of the luciferase reporter element depending on a PPARdelta ligand. The stably and constitutively expressed fusion protein GR-GAL4-humanPPARdelta-LBD binds in the cell nucleus of the PPARdelta reporter cell line via the GAL4 protein portion to the GAL4 DNA binding motifs 5′-upstream of the luciferase reporter element which is stably integrated in the genome of the cell line. There is only little expression of the luciferase reporter gene in the absence of a PPARdelta ligand if fatty acid-depleted fetal calf serum (cs-FCS) is used in the assay. PPARdelta ligands bind and activate the PPARdelta fusion protein and thereby stimulate expression of the luciferase reporter gene. The luciferase which is formed can be detected by means of chemiluminescence via an appropriate substrate.
Construction of the PPARdelta Reporter Cell Line
The production of the stable PPARdelta reporter cell line is based on a stable HEK-cell clone which was stably transfected with a luciferase reporter element. This step was already described above in the section “construction of the PPARalpha reporter cell line”. In a second step, the PPARdelta fusion protein (GR-GAL4-humanPPARdelta-LBD was stably introduced into this cell clone. For this purpose, the cDNA coding for the N-terminal 76 amino acids of the glucocorticoid receptor (Accession #P04150) was linked to the cDNA section coding for amino acids 1-147 of the yeast transcription factor GAL4 (Accession #P04386). The cDNA of the ligand-binding domain of the human PPARdelta receptor (amino acids S139-Y441; Accession #L07592) was cloned in at the 3′-end of this GR-GAL4 construct. The fusion construct prepared in this way (GR-GAL4-humanPPARdelta-LBD) was recloned into the plasmid pcDNA3 (Invitrogen) in order to enable constitutive expression by the cytomegalovirus promoter. This plasmid was linearized with a restriction endonuclease and stably transfected into the previously described cell clone containing the luciferase reporter element. The resulting PPARdelta reporter cell line which contains a luciferase reporter element and constitutively expresses the PPARdelta fusion protein (GR-GAL4-human PPARdelta-LBD) was isolated by selection with zeocin (0.5 mg/ml) and G418 (0.5 mg/ml).
Assay Procedure and Evaluation
The activity of PPARdelta agonists is determined in a 3-day assay in exact analogy to the procedure already described for the PPARalpha reporter cell line except that the PPARdelta reporter cell line and a specific PPARdelta agonist was used as a standard to control test efficacy.
Background: Reporter assays use an easily measured gene product as a stand-in for the process of interest.

For the next experiment, the target named is T2, human PPARalpha (Homo sapiens, UniProt Q07869).
T2 construct: amino acids S167-Y468; expressed in transfected cells; plasmid pcDNA3
T2 sequence (Q07869 167-468): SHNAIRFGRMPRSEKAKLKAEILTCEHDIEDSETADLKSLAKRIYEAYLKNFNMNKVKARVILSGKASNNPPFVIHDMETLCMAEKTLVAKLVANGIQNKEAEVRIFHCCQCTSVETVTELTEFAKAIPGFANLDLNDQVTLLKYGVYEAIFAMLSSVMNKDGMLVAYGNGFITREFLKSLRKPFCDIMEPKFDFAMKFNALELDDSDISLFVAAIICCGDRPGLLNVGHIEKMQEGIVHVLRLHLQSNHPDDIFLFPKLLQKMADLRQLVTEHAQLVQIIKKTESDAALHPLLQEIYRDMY
The experiment in a line: Cellular PPARalpha assay (human GAL4 luciferase reporter, stably transfected HEK cell line). In kind it is cell-based. As for the experimental part: Determination of EC50 Values of PPAR Agonists in the Cellular PPARalpha Assay
as §1, with “PPARalpha” for “PPARdelta”, “It” for “In analogy to the assay described for PPARalpha, the PPARdelta reporter cell line also”, “(GR-GAL4-humanPPARalpha-LBD)” for “(GR-GAL4-humanPPARdelta-LBD)”, “GR-GAL4-humanPPARalpha-LBD” for “GR-GAL4-humanPPARdelta-LBD”, “weak” for “little”, “stimulate the” for “stimulate”
Construction of the PPARalpha Reporter Cell Line
The PPARalpha reporter cell line was prepared in two stages. Firstly, the luciferase reporter element was constructed and stably transfected into HEK cells. For this purpose, five binding sites of the yeast transcription factor GAL4 (Accession #AF264724) were cloned in 5′-upstream of a 68 bp-long minimal MMTV promoter (Accession #V01175). The minimal MMTV promoter section contains a […] and a TATA element in order to enable efficient transcription by RNA polymerase II. The cloning and sequencing of the GAL4-MMTV construct took place in analogy to the description of Sambrook J. et al. (Molecular cloning, Cold Spring Harbor Laboratory Press, 1989). Then the complete Photinus pyralis gene (Accession #15077) was cloned in 3′-downstream of the GAL4-MMTV element. After sequencing, the luciferase reporter element consisting of five GAL4 binding sites, MMTV promoter and luciferase gene was recloned into a plasmid which confers zeocin resistance in order to obtain the plasmid pdeltaM-GAL4-Luc-Zeo. This vector was transfected into HEK cells in accordance with the statements in Ausubel, F. M. et al. (Current protocols in molecular biology, Vol. 1-3, John Wiley & Sons, Inc., 1995).
In a second step, the PPARalpha fusion protein (GR-GAL4-humanPPARalpha-LBD was introduced into the stable cell clone described. For this purpose, initially the cDNA coding for the N-terminal 76 amino acids of the glucocorticoid receptor (Accession #P04150) was linked to the cDNA section coding for amino acids 1-147 of the yeast transcription factor GAL4 (Accession #P04386). The cDNA of the ligand-binding domain of the human PPARalpha receptor (amino acids S167-Y468; Accession #S74349) was cloned in at the 3′-end of this GR-GAL4 construct. The fusion construct prepared in this way (GR-GAL4-humanPPARalpha-LBD) was recloned into the plasmid pcDNA3 (Invitrogen) in order to enable constitutive expression therein by the cytomegalovirus promoter. This plasmid was linearized with a restriction endonuclease and stably transfected into the previously described cell clone containing the luciferase reporter element. The finished PPARalpha reporter cell line which contains a luciferase reporter element and constitutively expresses the PPARalpha fusion protein (GR-GAL4-human PPARalpha-LBD) was isolated by selection with zeocin (0.5 mg/ml) and G418 (0.5 mg/ml).
The activity of PPARalpha agonists is determined in a 3-day assay, which is described below: […]

In general, pEC50 refers to −log10 of the EC50, conventionally taken in molar units. A lower pEC50 goes with a high EC50. For the compound `COc1ccc(-c2nc(COc3ccc(-c4noc(=O)[nH]4)c(C)c3)c(CN3CCOCC3)o2)cc1` [Example 68, 3-{4-[2-(4-Methoxy-phenyl)-5-morpholin-4-ylmethyl-oxazol-4-ylmethoxy]-2-methyl-phenyl}-4H-[1,2,4]oxadiazol-5-one], the pEC50 on human PPARdelta was 6.18; at human PPARalpha, 5.92.
For the compound `O=c1[nH]c(-c2ccc(OCc3sc(-c4ccc(C(F)(F)F)cc4)nc3COCCC3CCCCC3)cc2Cl)no1` [Example 83, 3-{2-Chloro-4-[4-(2-cyclohexyl-ethoxymethyl)-2-(4-trifluoromethyl-phenyl)-thiazol-5-ylmethoxy]-phenyl}-4H-[1,2,4]oxadiazol-5-one], the pEC50 was 7.92 at human PPARdelta and 6.40 on human PPARalpha.
For `Cc1cc(OCc2sc(-c3ccc(C(F)(F)F)cc3)nc2CNCCN2CCOCC2)ccc1-c1noc(=O)[nH]1` [Example 51, 3-{2-Methyl-4-[4-[(2-morpholin-4-yl-ethylamino)-methyl]-2-(4-trifluoromethyl-phenyl)-thiazol-5-ylmethoxy]-phenyl}-4H-[1,2,4]oxadiazol-5-one], in that order: 6.64 and 5.92.
The corresponding values for `COc1cc(OCc2sc(-c3ccc(C(F)(F)F)cc3)nc2CN2CCC(C(F)(F)F)C2)ccc1-c1noc(=O)[nH]1` (racemic) [Example 9, 3-{2-Methoxy-4-[2-(4-trifluoromethyl-phenyl)-4-(3-trifluoromethyl-pyrrolidin-1-ylmethyl)thiazol-5-ylmethoxy]-phenyl}-4H-[1,2,4]oxadiazol-5-one] are 7.25 and 6.14.
With `COCCN(CCOC)Cc1nc(-c2ccc(C(F)(F)F)cc2)sc1COc1ccc(-c2noc(=O)[nH]2)c(Cl)c1` [Example 77, 3-{4-[4-{[Bis-(2-methoxy-ethyl)-amino]-methyl}-2-(4-trifluoromethyl-phenyl)-thiazol-5-ylmethoxy]-2-chloro-phenyl}-4H-[1,2,4]oxadiazol-5-one], the pEC50 at human PPARdelta was 8.52; at human PPARalpha, 6.28.
For `O=c1[nH]c(-c2ccc(OCc3sc(-c4ccc(C(F)(F)F)cc4)nc3CN3CCC(C(F)(F)F)CC3)cc2OC(F)F)no1` [Example 94, 3-{2-Difluoromethoxy-4-[2-(4-trifluoromethyl-phenyl)-4-(4-trifluoromethyl-piperidin-1-ylmethyl)-thiazol-5-ylmethoxy]-phenyl}-4H-1,2,4-oxadiazol-5-one], the values for the pEC50 at human PPARdelta and on human PPARalpha were 7.74 and 6.18, respectively.
For `COc1cc(OCc2sc(-c3ccc(C(F)(F)F)cc3)nc2CN2CCC(C(F)(F)F)CC2)ccc1-c1noc(=O)[nH]1` [Example 1, 3-{2-Methoxy-4-[2-(4-trifluoromethyl-phenyl)-4-(4-trifluoromethyl-piperidin-1-ylmethyl)-thiazol-5-ylmethoxy]-phenyl}-4H-[1,2,4]oxadiazol-5-one], in that order: 7.25 and 6.08.
The corresponding values for `COc1cc(OCc2sc(-c3ccc(C(F)(F)F)cc3)nc2CSC)ccc1-c1noc(=O)[nH]1` [Example 89, 3-{2-Methoxy-4-[4-methylsulfanylmethyl-2-(4-trifluoromethyl-phenyl)-thiazol-5-ylmethoxy]-phenyl}-4H-1,2,4-oxadiazol-5-one] are 6.82 and 5.58.
The corresponding values for `CN(CCO)Cc1nc(-c2ccc(C(F)(F)F)cc2)sc1COc1ccc(-c2noc(=O)[nH]2)c(F)c1` [Example 19, 3-{2-Fluoro-4-[4-{[(2-hydroxy-ethyl)-methyl-amino]-methyl}-2-(4-trifluoromethyl-phenyl)-thiazol-5-ylmethoxy]-phenyl}-4H-[1,2,4]oxadiazol-5-one] are 6.77 and 5.92.
For the compound `COc1cc(OCc2sc(-c3ccc(C(F)(F)F)cc3)nc2CCCS(C)(=O)=O)ccc1-c1noc(=O)[nH]1` [Example 102, 3-{4-[4-(3-Methanesulfonyl-propyl)-2-(4-trifluoromethyl-phenyl)-thiazol-5-ylmethoxy]-2-methoxy-phenyl}-4H-1,2,4-oxadiazol-5-one], the pEC50 was 7.66 at human PPARdelta and 5.75 at human PPARalpha.

Source of the values: US7851493B2, “Phenyl-1,2,4-oxadiazolone derivatives with phenyl group, processes for their preparation and their use as pharmaceuticals” (Sanofi-Aventis, priority 2005, dated 2010).
